Paper PMC6718478, “A Comprehensive Antimicrobial Activity Evaluation of the Recombinant Microcin J25 Against the Foodborne Pathogens Salmonella and E. coli O157:H7 by Using a Matrix of Conditions” (Frontiers in Microbiology, 2019)
Positions of bridges follow the written chain, without caps; N, C: chain ends. Residues, ends and D or L forms follow the SMILES beside them.

Key:
S. Pullorum = experiment: SEM of cell membrane morphology; type: cell-based, Salmonella Pullorum; conditions: 1 or 4 × MIC for 1 h at 37°C; ~2 × 10^6 cells
Description: To assess the alteration of S. Pullorum cell membrane morphology and ultrastructure, SEM and TEM were performed as described previously, with minor modifications ([Wang et al., 2017]; [Meng et al., 2019]). For SEM sample preparation, approximately 2 × 10^6 S. Pullorum cells were incubated at 37°C for 1 h with the recombinant MccJ25 at 1× and 4 × MIC levels. The control was performed without the recombinant MccJ25. After incubation, the cells were harvested, mixed and centrifuged at 8,000 × g for 3 min. The bacterial pellets were washed three times in PBS and centrifuged at 3,000 × g for 10 min. The bacterial cells were resuspended in 500 μL of PBS and supplemented with 2.5% fresh glutaraldehyde at 4°C overnight. Thereafter, the bacterial pellets were postfixed in 1% osmium tetroxide, dehydrated, and coated with gold-palladium. They were observed by SEM (EVO MA10 XVP, Carl Zeiss).

ZO-1 = experiment: Tight junction protein mRNA expression in Salmonella-challenged IPEC-J2 cells, real-time PCR; type: cell-based; conditions: 6 h with recombinant MccJ25, then Salmonella for 2 h, n = 9
Description: (§1) IPEC-J2 cells were cultured with or without recombinant MccJ25 for 6 h and then treated with Salmonella for 2 h. Cells were collected, and relative mRNA expression was analyzed by real-time PCR. The data are the means ± SEMs of three independent experiments, n = 9. Different superscript lowercase letters within each group indicate significant differences (P < 0.05).

Claudin-1 = experiment: as above; type: cell-based; conditions: 6 h with recombinant MccJ25, then Salmonella for 2 h, n = 9
Description: as §1

Structure (SMILES): CC[C@H](C)[C@H](NC(=O)CNC(=O)[C@@H](NC(=O)[C@H](Cc1ccccc1)NC(=O)[C@H](Cc1ccc(O)cc1)NC(=O)[C@@H]1CCC(=O)NCC(=O)NCC(=O)N[C@@H](C)C(=O)NCC(=O)N[C@@H](Cc2c[nH]cn2)C(=O)N[C@@H](C(C)C)C(=O)N2CCC[C@H]2C(=O)N1)C(C)C)C(=O)NCC(=O)N[C@H](C(=O)N1CCC[C@H]1C(=O)N[C@H](C(=O)N[C@@H](CO)C(=O)N[C@@H](Cc1ccccc1)C(=O)N[C@@H](Cc1ccc(O)cc1)C(=O)NCC(=O)O)[C@@H](C)CC)[C@@H](C)O [recombinant MccJ25, microcin J25] (GGAGHVPEYFVGIGTPISFYG-OH; lactam N-8 (inferred); C-terminus assumed)
- cell membrane morphology by SEM (S. Pullorum): minimal membrane roughening, enlargement, and some filiferous adhesions in a small amount of cells
- mRNA expression of ZO-1 (ZO-1): significantly increased
- mRNA expression of Claudin-1 (Claudin-1): significantly increased
